In patent US20250009737A1, “COMPOUNDS AND METHODS FOR THE TARGETED DEGRADATION OF ANDROGEN RECEPTOR” (Arvinas Operations, Inc., priority 2023, published 2025):
Read-outs that look alike come from different tables or passages of the source.

Legend:
Assay type in all cases: in vitro ADME
[1] = Metabolite profiling / stability in human hepatocyte suspension
Experimental: Metabolite profiling was conducted in incubations of Compound A (2 and 10 μM) with HLM (up to 60 min), human hepatocyte suspension (up to 240 min) and human plasma (up to 360 min). In addition, Compound A (2 μM) was incubated with recombinant human CYP enzymes CYP1A2, CYP2A6, CYP2B6, CYP2C8, CYP2C9, CYP2C19, CYP2D6, CYP2E1, CYP3A4 and CYP3A5.
The DDI potential of Compound A as a victim via CYP mediated pathways was examined in HLM, human hepatocyte suspensions, and human recombinant CYP enzymes.

CYP3A = CYP3A (Homo sapiens, UniProt P08684); experiment: Direct and time-dependent CYP3A inhibition in pooled human liver microsomes; settings: pooled HLM, read-out: IC50, No Pre-incubation
Chain of CYP3A (P08684 2-503): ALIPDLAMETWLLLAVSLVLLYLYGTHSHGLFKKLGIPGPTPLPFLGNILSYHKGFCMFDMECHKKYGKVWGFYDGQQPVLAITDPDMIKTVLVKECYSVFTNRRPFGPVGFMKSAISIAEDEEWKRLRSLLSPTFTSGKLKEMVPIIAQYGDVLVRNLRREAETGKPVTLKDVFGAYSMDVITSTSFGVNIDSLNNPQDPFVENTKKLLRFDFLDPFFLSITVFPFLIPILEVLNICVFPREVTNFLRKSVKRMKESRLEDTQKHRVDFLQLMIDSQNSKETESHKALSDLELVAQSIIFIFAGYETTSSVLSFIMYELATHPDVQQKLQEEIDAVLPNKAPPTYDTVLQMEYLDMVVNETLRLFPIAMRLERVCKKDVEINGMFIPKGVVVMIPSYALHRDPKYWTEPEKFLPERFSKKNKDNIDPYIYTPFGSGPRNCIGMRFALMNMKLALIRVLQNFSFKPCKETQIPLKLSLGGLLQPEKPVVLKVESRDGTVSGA
Experimental: The induction potential of Compound A on CYP enzymes was assessed in cryopreserved human hepatocytes from three donors. Following treatment for with Compound A at concentrations of 0.03-30 μM for 48 hours, mRNA levels for CYP1A2, 2B6, 2C8, 2C9, 2C19, and 3A4 were determined by semiquantitative real-time polymerase chain reaction (PCR). Test article concentrations during 24-hour incubation were determined. The potential of Compound A to cause direct and time-dependent inhibition (TDI) of the activities of CYP1A2, 2B6, 2C8, 2C9, 2C19, 2D6, and 3A4 was evaluated in pooled human liver microsomes (HLM) at 0.2-15 μM. Probe substrate concentrations around Km were used for direction inhibition and initial TDI assays. For TDI assay, Compound A was pre-incubated with pooled HLM with and without NADPH for 30 minutes prior to incubation with a single concentration of probe substrate.

OATP1B1 = biological target: T1, OATP1B1 (Homo sapiens, UniProt Q9Y6L6); experiment: OATP1B1 uptake transporter inhibition in MDCKII or HEK293 cells; set-up: expressed in transfected cells; host or cells: MDCKII or HEK293; settings: substrate Rosuvastatin (1 μM)
T1 sequence (Q9Y6L6 1-691): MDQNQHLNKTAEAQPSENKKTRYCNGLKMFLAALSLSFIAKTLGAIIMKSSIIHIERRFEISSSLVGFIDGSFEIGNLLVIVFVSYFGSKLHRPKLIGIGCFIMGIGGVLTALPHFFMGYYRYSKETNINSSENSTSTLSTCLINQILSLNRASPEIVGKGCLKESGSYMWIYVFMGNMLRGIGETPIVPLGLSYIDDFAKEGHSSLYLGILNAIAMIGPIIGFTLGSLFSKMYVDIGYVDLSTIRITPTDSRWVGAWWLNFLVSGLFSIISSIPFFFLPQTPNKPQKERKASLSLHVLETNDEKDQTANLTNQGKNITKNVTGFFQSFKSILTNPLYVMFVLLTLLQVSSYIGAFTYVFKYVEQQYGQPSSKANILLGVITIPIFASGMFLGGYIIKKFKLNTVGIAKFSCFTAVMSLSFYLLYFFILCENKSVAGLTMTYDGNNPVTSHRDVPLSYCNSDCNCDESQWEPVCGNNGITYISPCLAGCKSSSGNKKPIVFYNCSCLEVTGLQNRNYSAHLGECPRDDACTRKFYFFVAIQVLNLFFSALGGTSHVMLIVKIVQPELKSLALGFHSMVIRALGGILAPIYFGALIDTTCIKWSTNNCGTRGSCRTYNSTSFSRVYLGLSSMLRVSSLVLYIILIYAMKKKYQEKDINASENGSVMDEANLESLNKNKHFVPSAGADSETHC
Experimental: (§1) In addition, the inhibition potential against efflux transporters (P-glycoprotein (Pgp) and breast cancer resistance protein (BCRP)) and uptake transporters (MATE1, MATE2-K, OATP1B1, OATP1B3, OAT1, OAT3, and OCT2) was assessed using single transporter over-expressed cell monolayers (MDCK II or HEK293) or inside-out vesicles.
(§2) The potential of Compound A to inhibit Pgp or BCRP was tested for bidirectional transport of the probe substrates in Pgp or BCRP-expressed MDCKII and control monolayers at Compound A concentrations of 0.07-5 μM. Pgp and BCR inhibition were tested in inside-out membrane vesicles prepared from HEK293 overexpressing human Pgp and BCR at concentrations of 0.01-9 μM Compound A in the presence of 4 mM MgATP or MgAMP.

Pgp = Pgp (Homo sapiens, UniProt P08183); experiment: Pgp inhibition in inside-out membrane vesicles from HEK293; set-up: expressed in transfected cells; host or cells: HEK293 (inside-out membrane vesicles)
Chain of Pgp (P08183 whole entry): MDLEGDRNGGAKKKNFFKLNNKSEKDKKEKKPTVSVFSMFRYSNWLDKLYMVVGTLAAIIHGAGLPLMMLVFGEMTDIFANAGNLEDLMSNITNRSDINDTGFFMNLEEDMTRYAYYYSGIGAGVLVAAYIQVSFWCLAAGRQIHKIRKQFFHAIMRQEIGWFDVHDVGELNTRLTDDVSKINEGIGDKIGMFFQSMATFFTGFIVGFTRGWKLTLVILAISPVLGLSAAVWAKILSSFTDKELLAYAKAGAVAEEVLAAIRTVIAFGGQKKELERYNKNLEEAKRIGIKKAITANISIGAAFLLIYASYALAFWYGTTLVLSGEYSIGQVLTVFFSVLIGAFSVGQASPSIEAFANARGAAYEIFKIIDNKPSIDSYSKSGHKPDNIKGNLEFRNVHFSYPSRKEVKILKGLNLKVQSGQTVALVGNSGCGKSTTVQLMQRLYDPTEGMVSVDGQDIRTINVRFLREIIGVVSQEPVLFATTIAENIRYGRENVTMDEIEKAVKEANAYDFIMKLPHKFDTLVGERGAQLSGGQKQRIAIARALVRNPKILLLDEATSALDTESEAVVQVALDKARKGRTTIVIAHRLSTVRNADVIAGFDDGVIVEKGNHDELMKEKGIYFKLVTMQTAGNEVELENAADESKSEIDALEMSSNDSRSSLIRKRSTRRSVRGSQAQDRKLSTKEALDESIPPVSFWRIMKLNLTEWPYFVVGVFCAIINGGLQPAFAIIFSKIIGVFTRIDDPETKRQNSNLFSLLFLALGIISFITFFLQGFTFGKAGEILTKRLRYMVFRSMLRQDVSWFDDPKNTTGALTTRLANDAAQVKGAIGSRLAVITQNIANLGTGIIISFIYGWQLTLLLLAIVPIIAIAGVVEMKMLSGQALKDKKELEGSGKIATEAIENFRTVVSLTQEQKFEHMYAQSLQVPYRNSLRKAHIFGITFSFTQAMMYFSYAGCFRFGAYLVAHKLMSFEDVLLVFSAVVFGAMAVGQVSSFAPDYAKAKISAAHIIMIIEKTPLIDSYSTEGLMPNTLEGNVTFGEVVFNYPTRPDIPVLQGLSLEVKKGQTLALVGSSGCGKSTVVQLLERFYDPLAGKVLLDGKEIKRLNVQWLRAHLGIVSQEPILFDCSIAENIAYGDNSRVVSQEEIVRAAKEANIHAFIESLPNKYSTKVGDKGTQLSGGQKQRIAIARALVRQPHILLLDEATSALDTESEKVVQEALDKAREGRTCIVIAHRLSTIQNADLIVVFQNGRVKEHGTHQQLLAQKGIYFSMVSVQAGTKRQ
Experimental: as §1, §2

- % Parent at 0 Min, HH at 240 min ([1]; human hepatocyte suspensions, 240 min): 86.9%
- Stability in human hepatocyte suspension ([1]; up to 240 min): relatively stable
- IC50 (CYP3A; probe midazolam (2 μM), substrate Midazolam 2 μM): > 15 µM
- IC50 (CYP3A; probe testosterone (50 μM), substrate Testosterone 50 μM): > 15 µM
- IC50 (OATP1B1): > 3.75 µM
- inhibition at 1 µM (Pgp; human, probe NMQ (1 μM), Vesicles, substrate NMQ (1 μM), read-out: Maximal % Inhibition): 87%
- IC50 (Pgp; vesicle assays): 0.23 µM
Structure (SMILES): COc1cc(O[C@H]2C(C)(C)[C@H](NC(=O)c3ccc(N4CCC(CN5CCN(c6ccc(C(=O)N[C@H]7CCC(=O)NC7=O)c(F)c6)CC5)CC4)cc3)C2(C)C)ccc1C#N [Compound A, 4-(4-((1-(4-(((1R,3R)-3-(4-cyano-3-methoxyphenoxy)-2,2,4,4-tetramethylcyclobutyl)carbamoyl)phenyl)piperidin-4-yl)methyl)piperazin-1-yl)-N—((S)-2,6-dioxopiperidin-3-yl)-2-fluorobenzamide]
